# In patent publication US9913809B1, “Anti-cancer activity of (E)-1-(3′,4′-dimethoxyphenyl) butadiene” (SAMI LABS LIMITED, priority 2016, dated 2018):
# Assays:
# E-selectin (CD 62E) = experiment: Flow cytometry, E-selectin expression in pancreatic carcinoma cells; type: cell-based, human; settings: flow cytometric studies
# [1] = tested on: Caco-2 cancer cell line (Colon Carcinoma); experiment: MTT cytotoxicity assay, Caco-2; type: cell-based; settings: Homo sapiens, Caco-2, colon carcinoma
# Experimental: (§1) Human pancreatic PANC-1 cancer cell line (pancreatic carcinoma cells), human prostate DU145 cancer cell line (prostate carcinoma), human ovarian cancer SKOV3 (ovarian carcinoma) cell line, colon Caco-2 cancer cell line (Colon Carcinoma), lung A549 cancer cell line (Lung carcinoma), lymphoblastoma K562 cancer cell line, melanoma B16F1 cancer cell line and colorectal HCT cancer cell line (Colorectal carcinoma), were grown and cultured using standard protocols known in the art. The cancer cell lines were treated with DMPBD in varying concentrations for measuring cytotoxicity. The estimation of the viability assay of the cells was done by the MTT (3-(4,5-dimethylthiazol-2-yl)-2,5-diphenyltetrazolium bromide) colorimetric assay. The MTT Assay measures the cell proliferation rate and conversely, when metabolic events lead to apoptosis or necrosis, the reduction in cell viability. The data is analyzed by plotting cell number versus absorbance allowing the quantification of changes in cell proliferation. The rate of tetrazolium reduction is proportional to the rate of cell proliferation. […]
# (§2) The MTT Assay as performed was adapted from (1) Tim Mosmann. […] A tetrazolium-based colorimetric MTT assay to quantitate human monocyte mediated cytotoxicity against leukemic cells from cell lines and patients with acute myeloid leukemia. […]
# P-selectin (CD 62P) [2] = experiment: Flow cytometry, P-selectin expression in K562 lymphoblastoma cells; type: cell-based, human; settings: TNF-alpha and IL-1beta 10 ng/ml, 72 hours
# [3] = tested on: HCT cancer cell line (Colorectal carcinoma); experiment: MTT cytotoxicity assay, HCT; type: cell-based; settings: Homo sapiens
# Experimental: as §1, §2
# [4] = tested on: A549 cancer cell line (Lung carcinoma); experiment: MTT cytotoxicity assay, A549; type: cell-based; settings: Homo sapiens
# Experimental: as §1, §2
# L-selectin (CD 62L) [5] = experiment: Flow cytometry, L-selectin expression in HCT colorectal carcinoma cells; type: cell-based, human; settings: TNF-alpha and IL-1beta 10 ng/ml, 72 hours
# L-selectin (CD 62L) [6] = experiment: Flow cytometry, L-selectin expression in LNCap prostate carcinoma cells; type: cell-based, human; settings: DMPBD 20 μg/ml, TNF-alpha and IL-1beta 10 ng/ml, 72 hours
# [7] = tested on: melanoma B16F1 cancer cell line; experiment: MTT cytotoxicity assay, B16F1; type: cell-based, human; settings: Mus musculus, B16-F1
# Experimental: as §1, §2
# [8] = tested on: PANC-1 cancer cell line (pancreatic carcinoma cells); experiment: MTT cytotoxicity assay, PANC-1; type: cell-based; settings: Homo sapiens, PANC-1, pancreatic carcinoma
# Experimental: as §1, §2
# [9] = tested on: DU145 cancer cell line (prostate carcinoma); experiment: MTT cytotoxicity assay, DU145; type: cell-based; settings: Homo sapiens, DU 145, prostate carcinoma
# Experimental: as §1, §2
# L-selectin (CD 62L) [10] = experiment: Flow cytometry, L-selectin expression in K562 lymphoblastoma cells; type: cell-based, human; settings: DMPBD 20 μg/ml, TNF-alpha and IL-1beta 10 ng/ml, 72 hours
# L-selectin (CD 62L) [11] = experiment: Flow cytometry, L-selectin expression in pancreatic carcinoma cells; type: cell-based, human; settings: flow cytometric studies
# [12] = tested on: lymphoblastoma K562 cancer cell line; experiment: MTT cytotoxicity assay, K562; type: cell-based; settings: Homo sapiens
# Experimental: as §1, §2
# P-selectin (CD 62P) [13] = experiment: Flow cytometry, P-selectin expression in LNCap prostate carcinoma cells; type: cell-based, human; settings: DMPBD 70 μg/ml, TNF-alpha and IL-1beta 10 ng/ml, 72 hours
# P-selectin (CD 62P) [14] = experiment: Flow cytometry, P-selectin expression in HCT colorectal carcinoma cells; type: cell-based, human; settings: TNF-alpha and IL-1beta 10 ng/ml, 72 hours
# [15] = tested on: SKOV3 (ovarian carcinoma) cell line; experiment: MTT cytotoxicity assay, SKOV3; type: cell-based; settings: Homo sapiens, SK-OV-3
# Experimental: as §1, §2
# P-selectin (CD 62P) [16] = experiment: Flow cytometry, P-selectin expression in pancreatic carcinoma cells; type: cell-based, human; settings: flow cytometric studies
smiles,measurement,setting,value
"C=C/C=C/c1ccc(OC)c(OC)c1 [DMPBD, (E)-1-(3′, 4′-Dimethoxyphenyl) butadiene]",expression of E-selectin,E-selectin (CD 62E),significant fold decrease
same,IC50,[1],39.3 µg/mL
same,% Reduction of P-selectin expression,P-selectin (CD 62P) [2]; DMPBD 10 μg/ml,11.6%
same,% Reduction of P-selectin expression,P-selectin (CD 62P) [2]; DMPBD 20 μg/ml,35.4%
same,IC50,[3],25.5 µg/mL
same,IC50,[4],30.2 µg/mL
same,% Reduction of L-selectin expression,L-selectin (CD 62L) [5]; DMPBD 10 μg/ml,11.3%
same,% Reduction of L-selectin expression,L-selectin (CD 62L) [5]; DMPBD 20 μg/ml,21.1%
same,% Reduction of L-selectin expression,L-selectin (CD 62L) [6],7.3%
same,IC50,[7],26.4 µg/mL
same,IC50,[8],4.2 µg/mL
same,IC50,[9],8.6 µg/mL
same,% Reduction of L-selectin expression,L-selectin (CD 62L) [10],30.3%
same,expression of L-selectin,L-selectin (CD 62L) [11],significant fold decrease
same,IC50,[12],22.5 µg/mL
same,% Reduction of P-selectin expression,P-selectin (CD 62P) [13],11.1%
same,% Reduction of P-selectin expression,P-selectin (CD 62P) [14]; DMPBD 10 μg/ml,11.8%
same,% Reduction of P-selectin expression,P-selectin (CD 62P) [14]; DMPBD 20 μg/ml,27.8%
same,IC50,[15],13.5 µg/mL
same,expression of P-selectin,P-selectin (CD 62P) [16],significant fold decrease
